# Source: US9676752B2, “Imidazolidine-2,4-dione derivatives” (IPSEN PHARMA S.A.S., priority 2013, dated 2017)
# Experiments:
# [1] = Evaluation of solubility in potassium phosphate buffer pH 7.4; type: physicochemical; conditions: aqueous buffer, kinetic from dmso stock; 100 mM potassium phosphate buffer pH 7.4, target 10 μM, 0.1% DMSO, 1 hour room temperature, LC-MS/MS
# Description: Evaluation of Solubility:
# Test compounds were prepared as stock solutions at […] in DMSO. The stock solutions were diluted, in duplicate, into 100 mM potassium phosphate buffer (pH 7.4) to a target concentration of 10 μM with a final DMSO concentration of 0.1%. The solutions were shaken at 1000 rpm for 1 hour at room temperature followed by centrifugation for 10 minutes at 1200 rpm to precipitate un-dissolved particles. The supernatants were transferred to new tubes and the samples were further prepared as follows: • Undiluted: 5 μL of supernatant to 95 μL of ACN containing internal standard (IS) • 1:10 diluted: 10 μL of the supernatant into 90 μL K-buffer, mix, then transfer 5 μL of 1:10 diluted samples to 95 μL ACN containing IS • 1:100 diluted: 10 μL of the supernatant into 990 μL K-buffer, mix, then transfer 5 μL of 1:100 diluted samples to 95 μL of ACN containing IS
# Samples (undiluted, 1:10 diluted, and 1:100 diluted) along with the standards were analyzed by LC-MS/MS.
# DU145 = assay: Anti-proliferative activity on DU145 in complete medium; type: cell-based; conditions: Homo sapiens, DU-145, 144 h incubation, Cell-Titer-Glow, line does not express androgen receptor
# Description: 2. Anti-Proliferative Activity on DU145 in Complete Medium
# (§1) It is used to evaluate the selectivity of the compounds for androgen receptor expressing cells. No activity of the compounds is expected. • The cells of the DU145 line (ATCC HTB-81) are seeded at 800 cells/well in 90 μl of complete medium in 96-well plates coated with poly-D-lysine (Biocoat, Costar). • Treatment of the cells: 24 h after the seeding, the cells are treated with 10 μl/well of compound diluted in the culture medium. The concentrations used are the following: 1 nM/10/30/100/300/1000/3000/10,000 nM. The cells are incubated for 144 h at 37° C., 5% CO2. • Reading: After incubation for 6 days, cell proliferation was determined by Cell-Titer-Glow (CTG) Luminescent Cell Viability Assay • Results: The experiments are carried out in duplicate and the best compounds are tested twice. A concentration value inhibiting the cell proliferation by 50% (IC50) is calculated.
# LNCaP = assay: Anti-proliferative activity on LNCaP in complete medium; type: cell-based; conditions: Homo sapiens, 144 h incubation, Cell-Titer-Glow
# Description: 1. Anti-Proliferative Activity on LNCaP in Complete Medium
# The anti-proliferative activity of the compounds of the present invention is determined on LNCaP in complete medium by applying the following experimental procedure:
# The LNCaP cell type (ATCC, 1740) originates from a prostate carcinoma. This line expresses the androgen receptor and is hormone-dependent.
# Maintenance of the LNCaP line is carried out in complete culture medium: RPMI, 10% of fetal calf serum, 2 mM glutamine, 100 U/ml penicillin, 0.1 mg/ml of streptomycin and 0.01M HEPES, 1 mM sodium pyruvate, […] of D-glucose. • Seeding the plates: The LNCaP line is seeded at 20,000 cells/well in 90 μl of complete medium in 96-well plates coated with poly-D-lysine (Biocoat, Costar). • Treatment of the cells: 24 h after the seeding, the cells are treated with 10 μl/well of compound diluted in the culture medium. The concentrations used are the following: 1 nM/10/30/100/300/1000/3000/10,000 nM. The cells are incubated for 144 h at 37° C., 5% CO2. • Reading: After incubation for 6 days, cell proliferation was determined by Cell-Titer-Glow (CTG) Luminescent Cell Viability Assay. • Results: The experiments are carried out in duplicate and the best compounds are tested twice. A concentration value inhibiting the cell proliferation by 50% (IC50) is calculated.
# [2] = system: human prostate cancer cells; conditions: agonist activity in place of antagonist activity; cited from earlier work
# VCaP = assay: Anti-proliferative activity on VCaP in complete medium; type: cell-based; conditions: Homo sapiens, 216 h, Cell-Titer-Glow, reading after 9 days
# Description: as §1, with “3. Anti-Proliferative Activity on VCaP in Complete Medium •” for “It is used to evaluate the selectivity of the compounds for androgen receptor expressing cells. No activity of the compounds is expected. •”, “the VCaP” for “the DU145”, “(ATCC CRL-2876)” for “(ATCC HTB-81)”, “at 20000” for “at 800”, “for […]” for “for 6”
# androgen receptor = target: T1, androgen receptor (Homo sapiens, UniProt P10275, T878A); assay: Measurement of protein expression of the androgen receptor in LNCaP cells (AR ELISA); type: cell-based; conditions: 3 days treatment, whole cell protein, AR ELISA kit; read-out: IC50 AR destruction in LNCaP
# T1 construct: This line expresses the androgen receptor and is hormone-dependent; endogenous in cells; host or cells: LNCaP (ATCC, 1740)
# T1 sequence (P10275 1-920 T878A): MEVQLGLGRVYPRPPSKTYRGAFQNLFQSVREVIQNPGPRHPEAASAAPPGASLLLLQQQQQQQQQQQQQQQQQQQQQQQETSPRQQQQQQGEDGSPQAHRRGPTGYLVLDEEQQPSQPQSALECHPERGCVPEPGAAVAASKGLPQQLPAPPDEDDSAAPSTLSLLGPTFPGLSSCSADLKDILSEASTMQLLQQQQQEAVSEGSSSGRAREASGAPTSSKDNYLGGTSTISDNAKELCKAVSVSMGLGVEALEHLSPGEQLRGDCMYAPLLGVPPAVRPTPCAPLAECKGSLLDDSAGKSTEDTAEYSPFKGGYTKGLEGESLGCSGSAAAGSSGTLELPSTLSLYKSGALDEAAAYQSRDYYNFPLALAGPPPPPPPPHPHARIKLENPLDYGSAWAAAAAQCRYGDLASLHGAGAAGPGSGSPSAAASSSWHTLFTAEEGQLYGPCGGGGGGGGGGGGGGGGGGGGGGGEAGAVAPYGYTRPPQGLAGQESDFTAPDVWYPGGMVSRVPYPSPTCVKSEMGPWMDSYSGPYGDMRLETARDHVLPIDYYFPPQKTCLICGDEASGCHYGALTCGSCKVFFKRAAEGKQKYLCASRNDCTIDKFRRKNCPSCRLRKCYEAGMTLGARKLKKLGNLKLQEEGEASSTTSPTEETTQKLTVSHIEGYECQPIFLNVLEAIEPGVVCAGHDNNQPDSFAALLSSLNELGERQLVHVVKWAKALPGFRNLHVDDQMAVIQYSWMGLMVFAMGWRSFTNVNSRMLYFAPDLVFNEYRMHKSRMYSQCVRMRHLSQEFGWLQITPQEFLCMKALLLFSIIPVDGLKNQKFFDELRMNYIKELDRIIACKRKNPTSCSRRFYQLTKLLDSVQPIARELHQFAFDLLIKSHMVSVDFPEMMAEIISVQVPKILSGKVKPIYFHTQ
# Description: Measurement of Protein Expression of the Androgen Receptor
# The cells of the LNCaP line are seeded at a rate of 2.5 million of cells per 10 cm Petri dish and maintained in 8 ml RPMI-1640 for 4 days. After 4 days incubation, 4 ml of medium were removed from the Petri dish and 5 ml fresh medium was added carefully. 1 ml of compounds 10-fold diluted in complete medium at concentrations from 3×10^-6 M to 10^-8 M. Cells were treated with the compounds for additional 3 days. The whole cell protein was extracted by Nuclear Extract kit and quantitated by the Bradford Protein Assay. The effect of compounds on AR levels in LNCaP cells was then determined by an AR ELISA kit.
SMILES,solubility at 1 h [1],IC50 (DU145),IC50 (LNCaP),effect on growth of human prostate cancer cells in culture [2],IC50 (VCaP),DC50 (androgen receptor)
"CC1(C)C(=O)N(c2ccc(C#N)c(C(F)(F)F)c2)C(=O)N1C/C=C\CN1CC(=O)N(c2ccc(S(C)(=O)=O)c(C(F)(F)F)c2)C1=O [Example 3, (Z)-4-(4,4-dimethyl-3-(4-(3-(4-(methylsulfonyl)-3-(trifluoromethyl)phenyl)-2,4-dioxoimidazolidin-1-yl)but-2-en-1-yl)-2,5-dioxoimidazolidin-1-yl)-2-(trifluoromethyl)benzonitrile]",0.53 µM,> 10000 nM,1120 nM,,,
CC1(C)NC(=O)N(c2ccc([N+](=O)[O-])c(C(F)(F)F)c2)C1=O [nilutamide],,,,capable of stimulating the growth,,
"CC1(C)C(=O)N(c2ccc(C#N)c(C(F)(F)F)c2)C(=O)N1C/C=C\CN1C(=O)N(c2ccc(S(C)(=O)=O)c(C(F)(F)F)c2)C(=O)C1(C)C [Example 1, (Z)-4-(3-(4-(5,5-dimethyl-3-(4-(methylsulfonyl)-3-(trifluoromethyl)phenyl)-2,4-dioxoimidazolidin-1-yl)but-2-en-1-yl)-4,4-dimethyl-2,5-dioxoimidazolidin-1-yl)-2-(trifluoromethyl)benzonitrile]",2.66 µM,> 10000 nM,313 nM,,551 nM,123 nM
"CC1(C)C(=O)N(c2ccc(S(C)(=O)=O)c(C(F)(F)F)c2)C(=O)N1C/C=C\CN1C(=O)N(c2cnc(C#N)c(C(F)(F)F)c2)C(=O)C1(C)C [Example 2, (Z)-5-(3-(4-(5,5-dimethyl-3-(4-(methylsulfonyl)-3-(trifluoromethyl)phenyl)-2,4-dioxoimidazolidin-1-yl)but-2-en-1-yl)-4,4-dimethyl-2,5-dioxoimidazolidin-1-yl)-3-(trifluoromethyl)picolinonitrile]",0.14 µM,> 10000 nM,1590 nM,,1050 nM,946 nM
